Columns and labels:
Type in all cases: cell-based
INS-1 cells [1] = test: Real time RT-PCR of beta-catenin and cyclin D1 mRNA in INS-1 cells; conditions: SDF-1 4 hr, relative to vehicle-treated control
Experimental: FIG. 9. […] Data are normalized by using the housekeeping gene GADPH as an internal control and represent means±S.D. of three independent experiments. Statistical significance is depicted as (p<0.01) when compared with control values.
Gene expression profiling on focused microarrays INS-1 cells were untreated or treated with 10 nM SDF-1 for 4 hrs. Total RNA was isolated and Biotin-labeled complimentary RNAs were generated using the TrueLabeling-AMP Linear RNA Amplification Kit (SuperArray Bioscience Corp.) The Wnt-signaling pathway-focused microarray filters (118 probes) (SuperArray Bioscience Corp.) were hybridized with these biotin-labeled targets (5 microg/array at 60 C overnight. The filters were washed and subsequently incubated with alkaline phosphatase-conjugated streptavidin and CDPStar substrate. The Chemiluminescent images were captured using Kodak Digital Station 440 (Perkin Elmer). For quantification, the spot intensity was measured and normalized to the value of the housekeeping gene GAPDH. Fold-changes in gene expression levels were determined by comparisons of hybridization densities of SDF-1 treated versus untreated INS-1 cells. Real time RT-PCR was carried out by using the SYBR® Green QPCR kit (Stratagene). Briefly, INS-1 cells were treated with 10 nM SDF-1 or PBS vehicle control for 4 h. […]

Wnt signaling = Wnt signaling reporter (beta-galactosidase) in isolated islets of TopGal mouse; conditions: SDF-1 1 nM, isolated TopGal mouse islets
Description: A. Isolated islets express reporter-driven beta-galactosidase. The dark regions mark the expression of beta-galactosidase, an indicator of the activation of the Wnt signaling reporter LacZ transgene. […] B. Polymerase chain reaction showing changes in beta-galactosidase mRNA levels in islets shown in panel A.
Isolated mouse pancreatic islets Mouse islets were isolated (Lacy PE (1994) Pancreatic islet cell transplant. Mt Sinai J. Med. 61:23-31.) from the pancreata of TopGal reporter mice transgenic for the LEF-LacZ Wnt signaling reporter (DasGupta R, Fuchs E (1999) Development. 1999 126:4557-4568.). Freshly isolated islets were treated for 4 hrs with SDF-1 with and without the addition of the Galphai/o inhibitor pertussis toxin (PTX) or the CXCR4 antagonist AMD3100. Betagalactosidase activity was determined by incubation of the islets with X-gal for 6 hrs.
Polymerase chain reaction analyses of betagalactosidase mRNA levels in isolated mouse islets Islets from TopGal mice were harvested after treatments with SDF-1, SDF-1+AMD3100, and SDF-1+pertussis toxin. RNA was extracted and beta galactosidase mRNA levels were measured by PCR using a SYBR Green QPCR kit (Stratagene) with the primers as described in Liu Z, Habener J F 2008 Glucagon-like Peptide-1 Activation of TCF7L2-dependent Wnt Signaling Enhances Pancreatic Beta Cell Proliferation. […]

alpha-TC-1 cells = test: BrdU incorporation cell proliferation assay in alpha-TC-1 cells; conditions: serum starved alpha-TC-1 cells, SDF-1 10 nM, 20 hrs
Experimental: FIG. 16. BrdU incorporation cell proliferation assay. Serum starved alpha-TC-1 cells were treated with either PBS (Control) or SDF-1 (10 nM) for 20 hrs, and their proliferation rate was examined by a BrdU incorporation assay. Data represent means±S.D. of three experiments. Statistical significance is depicted as * (p<0.05) when compared with control values (left bar).

INS-1 cells [2] = test: Cell proliferation assay, BrdU incorporation; conditions: SDF-1 10 nM overnight
Experimental: (§1) FIG. 6. Inhibition of apoptosis by SDF-1 in INS-1 and MIN-6 cells is reversed by knock-down of betacatenin. A. Western blot analysis of extracts from MIN6 cells that were mock treated, thapsigargin-treated (1 μM) and/or siRNA transfected (0.25 mg/ml), by using anti-serum against cleaved caspase-3 (upper panel), anti-serum against cleaved PARP (middle panel) and actin antibody (lower panel) as a loading control. B. Caspase-3 activity (fluorescence/mg proteinx105) of INS-1 or MIN6 cells mock treated, thapsigargin-treated (1 μM) and/or siRNA transfected (0.25 mg/ml). Results are presented as mean±SD for n=3 independent experiments, All values are relative to the first (leftmost) bar. Statistical significance is depicted as * (p<0.05) when compared with control values (leftmost bar) and # (<0.05) when compared with […] thapsigargin treatment. C. Representative images are shown for TUNEL staining of INS-1 cells of n=3 independent experiments. Quantification of apoptotic cells is expressed as percent apoptotic cells relative to the total cells counted (lower left panel). […]
Cell Proliferation Assay Proliferation of INS-1 cells was determined by incorporation of BrdU into newly synthesized DNA of proliferating cells. […] BrdU staining was measured by the DELFIA cell proliferation kit (Perkin Elmer).

INS-1 cells [3] = test: MTT assay of cell growth; conditions: serum starved, SDF-1 10 nM, 48 hr
Experimental: as §1, with “panel). D. The proliferation rates of INS-1 cells after SDF-1 or Exd4 treatment are presented as relative BrdU and MTT incorporation values compared to that of control treated cells.” for “panel).”
MTT Assay Growth of INS-1 cells was determined by the MTT system. […]

Wnt target genes = test: Wnt signaling pathway-focused microarray (SuperArray) of INS-1 cells treated with SDF-1; conditions: 4 hrs
Experimental: FIG. 8. Wnt signaling focused array analysis. INS-1 cells were stimulated by SDF-1 (10 nM) for 4 hr. Total RNA was isolated and biotin-labeled complementary RNAs were generated. The Wnt signaling pathway-focused microarray filters (SuperArray Bioscience) were hybridzed with these biotin-labeled targets at 60 degree overnight. The filters were washed and subsequently incubated with alkaline phosphatase-conjugated streptavidin and CDP-substrate. The chemiluminescent images were captured. For quantification, the spot intensity was measured and normalized to the value of the housekeeping gene GADPH. Shown is a representative image of the focused array.
Gene expression profiling on focused microarrays INS-1 cells were untreated or treated with 10 nM SDF-1 for 4 hrs. Total RNA was isolated and Biotin-labeled complimentary RNAs were generated using the TrueLabeling-AMP Linear RNA Amplification Kit (SuperArray Bioscience Corp.) The Wnt-signaling pathway-focused microarray filters (118 probes) (SuperArray Bioscience Corp.) were hybridized with these biotin-labeled targets (5 microg/array at 60 C overnight. The filters were washed and subsequently incubated with alkaline phosphatase-conjugated streptavidin and CDPStar substrate. The Chemiluminescent images were captured using Kodak Digital Station 440 (Perkin Elmer). For quantification, the spot intensity was measured and normalized to the value of the housekeeping gene GAPDH. Fold-changes in gene expression levels were determined by comparisons of hybridization densities of SDF-1 treated versus untreated INS-1 cells. Real time RT-PCR was carried out by using the SYBR® Green QPCR kit (Stratagene). Briefly, INS-1 cells were treated with 10 nM SDF-1 or PBS vehicle control for 4 h. Total RNA was reverse-transcribed to cDNA using Super-Script II reverse transcriptase (Invitrogen). Real-time PCR was performed to amplify cyclin D1 and beta-catenin.
The expression of transcripts in INS-1 cells in response to SDF-1 (10 nM, 4 hrs) was determined on focused arrays of genes expressed in the Wnt signaling pathway. […] This finding is consistent with the down-regulation of genes expressing components of the beta-catenin destruction box involved in the degradation of beta-catenin that occurs in the absence of active Wnt signaling; for example, axin, glycogen synthase kinase-3 (Gsk3) and casein kinase 1 (Csnk1). These findings are consistent with the mechanism of Wnt/Fz-induced signaling involving Galphai/o activation of disheveled (Dv1) and the inhibition of the destruction box enzymes GSK3 and Csnk1 that destabilize and degrade betacatenin.

SDF-1: small, secreted 70 amino acid peptide chemokine, SEQ ID NO: 1, ligand of CXCR4
beta-catenin mRNA expression (INS-1 cells [1]): 3 fold
cyclin D1 mRNA expression (INS-1 cells [1]): 2 fold
activation of Wnt signaling (beta-galactosidase) in TopGal islets (Wnt signaling): activates Wnt signaling
proliferation of alpha cells (BrdU incorporation) (alpha-TC-1 cells): stimulates the proliferation
effect on proliferation of INS-1 cells, BrdU incorporation (INS-1 cells [2]): no detectable effects
effect on proliferation of INS-1 cells, MTT assay (INS-1 cells [3]): no detectable effects
mRNA fold change by SDF-1 (Wnt target genes; gene Axin1, SDF-1 10 nM): −2.58 fold
mRNA fold change by SDF-1 (Wnt target genes; gene Ccnd1 (Cyclin D1), SDF-1 10 nM): 1.48 fold
mRNA fold change by SDF-1 (Wnt target genes; gene Ccnd2 (Cyclin D2), SDF-1 10 nM): −2.29 fold
mRNA fold change by SDF-1 (Wnt target genes; gene Csnk2a1 (Casein kinase II, Alpha1), SDF-1 10 nM): −1.42 fold
mRNA fold change by SDF-1 (Wnt target genes; gene Csnk2b (Casein kinase 2, beta subunit), SDF-1 10 nM): −3.03 fold
mRNA fold change by SDF-1 (Wnt target genes; gene Ctbp1 (C-terminal binding protein 1), SDF-1 10 nM): −2.32 fold
mRNA fold change by SDF-1 (Wnt target genes; gene Ctnnb1 (Catenin (cadherin associated protein), beta 1), SDF-1 10 nM): 1.99 fold
mRNA fold change by SDF-1 (Wnt target genes; gene Cxxc4 (CXXC finger 4), SDF-1 10 nM): −1.43 fold
mRNA fold change by SDF-1 (Wnt target genes; gene Dvl1 (Dishevelled, dsh homolog 1), SDF-1 10 nM): −1.92 fold
mRNA fold change by SDF-1 (Wnt target genes; gene Fosl1 (Fos-like antigen 1), SDF-1 10 nM): 1.72 fold
mRNA fold change by SDF-1 (Wnt target genes; gene Foxn1 (Forkhead box N1), SDF-1 10 nM): 1.66 fold
mRNA fold change by SDF-1 (Wnt target genes; gene Fshb (Follicle stimulating hormone beta), SDF-1 10 nM): 1.69 fold
mRNA fold change by SDF-1 (Wnt target genes; gene Fzd2 (Frizzled homolog 2), SDF-1 10 nM): 1.43 fold
mRNA fold change by SDF-1 (Wnt target genes; gene Gsk3a (Glycogen synthase kinase 3 alpha), SDF-1 10 nM): −1.67 fold
mRNA fold change by SDF-1 (Wnt target genes; gene Gsk3b (Glycogen synthase kinase 3 beta), SDF-1 10 nM): −1.51 fold
mRNA fold change by SDF-1 (Wnt target genes; gene Lrp5_predicted (Low density lipoprotein receptor-related protein 5), SDF-1 10 nM): 1.72 fold
mRNA fold change by SDF-1 (Wnt target genes; gene Myc, SDF-1 10 nM): −2.55 fold
mRNA fold change by SDF-1 (Wnt target genes; gene Ppp2cb (Protein phosphatase 2, catalytic subunit, beta isoform), SDF-1 10 nM): −2.12 fold
mRNA fold change by SDF-1 (Wnt target genes; gene Ppp2r1b (Protein phosphatase 2, regulatory subunit A (PR 65), beta isoform), SDF-1 10 nM): −1.71 fold
mRNA fold change by SDF-1 (Wnt target genes; gene Rhoa (Ras homolog gene family, member A), SDF-1 10 nM): −1.32 fold
mRNA fold change by SDF-1 (Wnt target genes; gene Slc9a3r1 (Solute carrier family 9, isoform 3 regulator 1), SDF-1 10 nM): 1.43 fold
mRNA fold change by SDF-1 (Wnt target genes; gene Tcfe2a (Transcription factor E2a), SDF-1 10 nM): 1.61 fold
mRNA fold change by SDF-1 (Wnt target genes; gene Wif1 (Wnt inhibitory factor 1), SDF-1 10 nM): −1.92 fold
mRNA fold change by SDF-1 (Wnt target genes; gene Wnt7b (Wingless-related MMTV integration site 7B), SDF-1 10 nM): 1.59 fold
